In patent US10668048B2, “Compounds for inhibiting bacterial growth via phosphatidylglycerol binding” (Wichita State University, priority 2016, dated 2020):
≈ marks a conversion by molar mass, not a printed value.

What was measured:
[1] = system: Gram-negative and Gram-positive bacteria; test: MIC/MBC in Muller Hinton culture, summary over the bacteria tested; format: cell-based
Protocol: (§1) MICs were determined in cation-adjusted Muller Hinton culture. Standard CLSI protocol for serial dilutions of liptin concentrations were used to determine the MIC, starting at 0.01 OD. Two different experimental cultures were used and each data point measured in triplicate.
as §1, with “Minimum bactericidal concentration (MBC)” for “MICs”, “MBC,” for “MIC,”

MRSA [2] = test: MIC in cation-adjusted Muller Hinton culture; format: cell-based, Methicillin-resistant S. aureus; details: no growth after 24 hours
Protocol: as §1

[3] = system: A549 (lung carcinoma epithelial) cells; test: LDH release cytotoxicity assay; format: cell-based; details: near 15 μM
Protocol: (§2) Toxicity Studies of human HeLa (vaginal carcinoma) and A549 (lung carcinoma epithelial) cells with Liptins 1h and 1k.
(§3) Eukaryote cell toxicity was determined using a Pierce LDH assay kit including the Chemical Compound-Mediated Cytotoxicity assay. This kit measures cell death by measuring the amount of lactate dehydrogenase released from cells. Lactate dehydrogenase (LDH) is a cytosolic enzyme present in many different types of cells. When the plasma membrane is damaged, LDH is released into cell culture media. The released LDH can be quantified by a coupled enzymatic reaction. First, LDH catalyzes the conversion of lactate to pyruvate via reduction of NAD+ to NADH. Second, diaphorase uses NADH to reduce a tetrazolium salt (INT) to a red formazan product. Therefore, the level of formazan formation is directly proportional to the amount of released LDH in the medium.

[4] = system: human HeLa (vaginal carcinoma) cells; test: LDH release cytotoxicity assay; format: cell-based; details: up to about 15 μM
Protocol: as §2, §3

Escherichia coli [5] = test: MBC in cation-adjusted Muller Hinton culture; format: cell-based
Protocol: as §1, with “Minimum bactericidal concentration (MBC)” for “MICs”, “MBC,” for “MIC,”

Staphylococcus aureus [6] = test: MBC in cation-adjusted Muller Hinton culture; format: cell-based
Protocol: as §1, with “Minimum bactericidal concentration (MBC)” for “MICs”, “MBC,” for “MIC,”

Klebsiella pneumoniae [7] = test: MBC in cation-adjusted Muller Hinton culture; format: cell-based
Protocol: as §1, with “Minimum bactericidal concentration (MBC)” for “MICs”, “MBC,” for “MIC,”

Mycobacterium smegmatis [8] = test: MBC in cation-adjusted Muller Hinton culture; format: cell-based
Protocol: as §1, with “Minimum bactericidal concentration (MBC)” for “MICs”, “MBC,” for “MIC,”

Acinetobacter baumannii [9] = test: MBC in cation-adjusted Muller Hinton culture; format: cell-based
Protocol: as §1, with “Minimum bactericidal concentration (MBC)” for “MICs”, “MBC,” for “MIC,”

Escherichia coli [10] = test: Live-Dead stain (BacLight SYTO 9 / propidium iodide); format: cell-based; details: 10 μM, 90 minutes
Protocol: (§4) Molecular Probes BacLight© kits containing the SYTO 9 green-fluorescent dye and propidium iodide red-fluorescent dye were used to detect live or dead bacteria after ninety minute exposure of bacteria to liptins 1h or 1k. Bacteria in Muller Hinton culture were grown to an OD=0.3, were inoculated with liptins 1h and 1k and after ninety minutes stained with a mixture of the above dyes and affixed to a slide to be examined under a light microscope (40×) to determine the number of live and dead cells (green colored cells considered alive and red-colored cells considered dead). Data was calculated based upon an average of 5 different plate counts from each slide, and is based on a percent of total bacteria counted (live and dead). Control sample contains no liptin.

Staphylococcus aureus [11] = test: as above; format: cell-based; details: 5 μM, 90 minutes
Protocol: as §4

Klebsiella pneumoniae [12] = test: as above; format: cell-based; details: 5 μM, 90 minutes
Protocol: as §4

Mycobacterium smegmatis [13] = test: as above; format: cell-based; details: 5 μM, 90 minutes
Protocol: as §4

Acinetobacter baumannii [14] = test: as above; format: cell-based; details: 5 μM, 90 minutes
Protocol: as §4

Escherichia coli [15] = test: MIC in cation-adjusted Muller Hinton culture; format: cell-based; details: no growth after 24 hours
Protocol: as §1

Pseudomonas aeruginosa = test: MIC in cation-adjusted Muller Hinton culture; format: cell-based; details: no growth after 24 hours
Protocol: as §1

Staphylococcus aureus [16] = test: MIC in cation-adjusted Muller Hinton culture; format: cell-based; details: no growth after 24 hours
Protocol: as §1

Klebsiella pneumoniae [17] = test: MIC in cation-adjusted Muller Hinton culture; format: cell-based; details: no growth after 24 hours
Protocol: as §1

Mycobacterium smegmatis [18] = test: MIC in cation-adjusted Muller Hinton culture; format: cell-based; details: no growth after 24 hours
Protocol: as §1

Acinetobacter baumannii [19] = test: MIC in cation-adjusted Muller Hinton culture; format: cell-based; details: no growth after 24 hours
Protocol: as §1

S. aureus = test: BacLight Bacterial Membrane Potential kit, plasma membrane depolarization; format: cell-based; details: one half the liptins' MICs; concentration dependent
Protocol: (§5) The Molecular Probes BacLight® Bacterial Membrane Potential kit was used to detect changes in the polarization of the bacterial plasma membrane upon inoculation of bacteria with varying concentrations of liptins 1h or 1k. […] CCCP (carbonyl cyanide 3-chlorophenylhydrazone) is a proton ionophore that destroys plasma membrane potential and as such is a positive control. […] With plasma membrane depolarization the bacterial cell loses its ability to synthesize ATP and proteins. Additionally loss of membrane potential stops the ability for cell replication due to an inability for proper placement of divisome proteins in the plasma membrane. […] Thus, it is possible that the liptin's mechanism of action is a result of their deleterious effect on the functioning of electron transport proteins found in the plasma membrane.

E. coli = test: as above; format: cell-based; details: one half the liptins' MICs; concentration dependent
Protocol: as §5

MRSA [20] = test: MBC in cation-adjusted Muller Hinton culture; format: cell-based, Methicillin-resistant S. aureus
Protocol: as §1, with “Minimum bactericidal concentration (MBC)” for “MICs”, “MBC,” for “MIC,”

[21] = system: Gram-positive and Gram-negative bacteria; test: Growth curves in BHI culture with liptins 1h-k; format: cell-based; details: one inoculation
Protocol: Growth curves in BHI culture were generated (not shown) from liquid shake-flask cultures using absorbance measurements at 600 nm at different concentrations of liptins 1h-k. Uninoculated control flasks were used as blanks. Absorbance values of 0.1 OD unit was considered reasonable threshold for positive growth. The use of the nutrient-rich BHI culture allowed us to measure the effects of the small structural differences in liptins 1h-k on bacterial growth rates over long periods of time. […] Liptin exposure appears to stop bacterial growth, as evidenced by long lag phases, which increase with liptin concentration, and growth rates and maximum cell densities are decreased with liptin treatment.

MRSA [22] = test: Live-Dead stain (BacLight SYTO 9 / propidium iodide); format: cell-based, Methicillin-resistant S. aureus; details: 90 minutes
Protocol: as §4

SMILES: CCCCCCNC(=O)Cc1ccc2c(c1)CNCCCCNCc1cc(CC(=O)NCCCCCC)ccc1OCCCCO2 [Liptin 1k]
- MICs determined for the 6 bacteria [1]: 1.5 to 2.5 µM
- MIC (MRSA [2]): 2.5 µM (≈ 1.59 µg/mL)
- cytotoxicity (LDH release) [3]: around 8%
- cell toxicity (LDH release) [4]: no cell toxicity
- MBC (Escherichia coli [5]): 7.5 µM (≈ 4.78 µg/mL)
- MBC (Staphylococcus aureus [6]): 9.5 µM (≈ 6.05 µg/mL)
- MBC (Klebsiella pneumoniae [7]): 9.5 µM (≈ 6.05 µg/mL)
- MBC (Mycobacterium smegmatis [8]): 9.5 µM (≈ 6.05 µg/mL)
- MBC (Acinetobacter baumannii [9]): 7.5 µM (≈ 4.78 µg/mL)
- Dead (Escherichia coli [10]): 65%
- Live (Escherichia coli [10]): 35%
- Dead (Staphylococcus aureus [11]): 42%
- Live (Staphylococcus aureus [11]): 58%
- Dead (Klebsiella pneumoniae [12]): 100%
- Live (Klebsiella pneumoniae [12]): 0%
- Dead (Mycobacterium smegmatis [13]): 100%
- Live (Mycobacterium smegmatis [13]): 0%
- Dead (Acinetobacter baumannii [14]): 97%
- Live (Acinetobacter baumannii [14]): 3%
- MIC (Escherichia coli [15]): 1.5 µM (≈ 0.955 µg/mL)
- MIC (Pseudomonas aeruginosa): 8 µM (≈ 5.1 µg/mL)
- MIC (Staphylococcus aureus [16]): 2 µM (≈ 1.27 µg/mL)
- MIC (Klebsiella pneumoniae [17]): 2.5 µM (≈ 1.59 µg/mL)
- MIC (Mycobacterium smegmatis [18]): 2 µM (≈ 1.27 µg/mL)
- MIC (Acinetobacter baumannii [19]): 2 µM (≈ 1.27 µg/mL)
- plasma membrane depolarization (red/green fluorescence ratio) (S. aureus): large membrane depolarization
- plasma membrane depolarization (red/green fluorescence ratio) (E. coli): large membrane depolarization
- MBC (MRSA [20]): 11.5 µM (≈ 7.32 µg/mL)
- antibacterial activity from growth curves [21]: most potent
- Dead (MRSA [22]; 5 μM): 70%
- Live (MRSA [22]; 5 μM): 30%
- Dead (MRSA [22]; 10 μM): 100%
- Live (MRSA [22]; 10 μM): 0%
